Reference: patent US8669266B2, “Quinoline-carboxamide derivatives as P2Y12 antagonists” (Sanofi, priority 2007, dated 2014)

Experiments:
[1] = tested on: human platelet rich plasma; assay: Inhibition of human platelet aggregation, 96-well assay (ADP-induced, platelet rich plasma); assay type: cell-based; conditions: 20 min, 96-well plate, human PRP, aggregation induced by ADP, AUC of absorbance over 20 minutes, 37° C.
Protocol: Alternatively to a binding assay which measures a compound's ability to bind to the P2Y12 receptor, the effect on cellular function was also determined. This ability of the compound was evaluated in two platelet aggregation assays: in 96-well plates and with the “Born”-method using single cuvettes.
Whole blood was collected from healthy volunteers using 20 ml syringes containing 2 ml of ACD-A Aqua-Citrat-Dextrose-A, Fresenius). The anticoagulated whole blood was transferred into 15 ml polypropylene conical tubes (10 ml per tube). The tubes were centrifuged for 15 minutes at 150×g at RT without using the centrifuge brake. This procedure leads to a pellet of cellular components and a supernatant of platelet rich plasma (PRP). The PRP layer was collected from each tube and pooled for each donor. To avoid carry over of cellular components following centrifugation, approximately 5 ml of PRP was left in the tube. The platelet concentration was determined using a Coulter Counter.
The 15 ml tubes containing the pellet of cellular components were centrifuged again for 10 minutes at 1940×g. This pelleted out most particulate blood constituents remaining, leaving a layer of Platelet Poor Plasma (PPP). The PPP was collected for each donor. The PRP layer, previously set aside, was diluted with PPP to a final concentration of approximately 3×E8 platelets/ml with the PPP.
The human platelet aggregation assay is performed in 96-well plates using a microtiter plate reader (SpectraMax Plus 384 with SoftMax Pro software from Molecular Devices).
In the plate 15 μl of test compound at 10× final concentration in NaCl is mixed with 120 μl fresh PRP and incubated for 5 minutes. Following that incubation period, 15 μl of 40 μM ADP is added to the reaction mix. This addition of ADP is sufficient to induce aggregation in the absence of an inhibitor. The plates are then transferred to the microplate reader and aggregation is measured over 20 minutes. The instrument settings include: Absorbance at 650 nm, run time 20 minutes with readings in 1-minute intervals and 50 seconds shaking between readings all performed at 37° C. Results of the assay are expressed as % inhibition, and are calculated using area under curve (AUC) of the absorbance over 20 minutes.

[2] = molecular target: human P2Y12 receptor (Homo sapiens (Human), UniProt Q9H244); assay: Human P2Y12 recombinant cell membrane binding assay with 33P 2MeS-ADP; conditions: CHO cell membranes with recombinant human P2Y12; competition against 33P 2MeS-ADP
Chain of human P2Y12 receptor (Q9H244 whole entry): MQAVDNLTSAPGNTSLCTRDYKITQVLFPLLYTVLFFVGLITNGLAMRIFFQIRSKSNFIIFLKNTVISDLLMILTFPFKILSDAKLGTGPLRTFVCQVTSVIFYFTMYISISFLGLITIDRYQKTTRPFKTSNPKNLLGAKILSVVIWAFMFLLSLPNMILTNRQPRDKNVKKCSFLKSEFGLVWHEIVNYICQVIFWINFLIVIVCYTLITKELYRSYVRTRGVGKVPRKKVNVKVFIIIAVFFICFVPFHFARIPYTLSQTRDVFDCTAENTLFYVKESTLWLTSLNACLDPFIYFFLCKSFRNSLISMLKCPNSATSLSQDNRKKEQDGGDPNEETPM
Protocol: The ability of the compounds of the formula I to inhibit the P2Y12 receptor can be assessed by determining the concentration of the compound of the formula I that binds to the human P2Y12 Recombinant Cell Membrane Binding Assay with 33P 2MeS-ADP.
Human P2Y12 Recombinant Cell Membrane Binding Assay
The ability of a test compound to bind to the P2Y12 receptor was evaluated in a recombinant cell membrane binding assay. In this competitive binding assay, the test compound competed against a radiolabeled agonist for binding to the P2Y12 receptor, expressed on the cell membrane. Inhibition of binding of the labeled material was measured and correlated to the amount and potency of the test compound.
As source of P2Y12, a membrane preparation was prepared from Chinese Hamster Ovary (CHO) cells with recombinant expression of the human P2Y12 receptor according to standard procedures.
Next, wells were washed four times with 400 μl/well of stop buffer on a plate vacuum. The plate was disassembled and allowed to air dry overnight with the filter side up over night. […] The top of the filter plate was sealed with plastic plate covers. The sealed filter plate were incubated 2 hours at RT. A Microbeta Scintillation Counter was used to measure counts.
Compounds were diluted as 10 mM DMSO stocks and tested in a four-point, five-fold dilution series run in triplicate beginning at 10 μM, final concentration. Data were analyzed using a four-parameter curve fit with a fixed minimum and maximum experimentally defined as the average positive and negative controls on each plate.

Q: With `CCOC(=O)N1CCN(C(=O)[C@H](CCC(=O)O)NC(=O)c2cc(OCC(=O)N3CCC(O)CC3)c3ccc(C)cc3n2)CC1` [Example 10, 4-[(S)-4-Carboxy-2-({4-[2-(4-hydroxy-piperidin-1-yl)-2-oxo-ethoxy]-7-methyl-quinoline-2-carbonyl}-amino)-butyryl]-piperazine-1-carboxylic acid ethyl ester] as the molecule, how does the IC50 [1] read?
A: 180 nM

Q: How did the IC50 [1] turn out when `CCNC(=O)[C@@H]1CCCN1C(=O)COc1cc(C(=O)N[C@@H](CCC(=O)O)C(=O)N2CCN(C(=O)OCC)CC2)nc2cccc(F)c12` [Example 179, 4-[(S)-4-Carboxy-2-({4-[2-((S)-2-ethylcarbamoyl-pyrrolidin-1-yl)-2-oxo-ethoxy]-5-fluoro-quinoline-2-carbonyl}-amino)-butyryl]-piperazine-1-carboxylic acid ethyl ester] was run?
A: 30 nM

Q: Which IC50 [2] does the source give for `CCOC(=O)N1CCN(C(=O)[C@H](CCC(=O)OCC2CCCC2)NC(=O)c2cc(OCC(=O)N3CCC[C@H]3C(=O)NC3CCC3)c3ccc(C)cc3n2)CC1` [Example 246, 4-[(S)-2-({4-[2-((S)-2-Cyclobutylcarbamoyl-pyrrolidin-1-yl)-2-oxo-ethoxy]-7-methyl-quinoline-2-carbonyl}-amino)-4-cyclopentylmethoxycarbonyl-butyryl]-piperazine-1-carboxylic acid ethyl ester] here?
A: 71 nM

Q: `CCOC(=O)N1CCN(C(=O)[C@H](CC(=O)O)NC(=O)c2cc(OCC(=O)N3CCC[C@H]3C(=O)NC3CCC3)c3cc(F)c(C)cc3n2)CC1` [Example 270, 4-[(S)-3-Carboxy-2-({4-[2-((S)-2-cyclobutylcarbamoyl-pyrrolidin-1-yl)-2-oxo-ethoxy]-6-fluoro-7-methyl-quinoline-2-carbonyl}-amino)-propionyl]-piperazine-1-carboxylic acid ethyl ester] was tested. Which IC50 [2] did it give?
A: 9 nM

Q: Which IC50 [2] does the source give for `CCOC(=O)N1CCN(C(=O)[C@H](CCC(=O)O)NC(=O)c2cc(O[C@H](C)C(=O)N3CCC[C@H]3C(=O)N3CCCCC3)c3ccc(C)cc3n2)CC1` [Example 296, 4-{(S)-4-Carboxy-2-[(7-methyl-4-{(R)-1-methyl-2-oxo-2-[(S)-2-(piperidine-1-carbonyl)-pyrrolidin-1-yl]-ethoxy}-quinoline-2-carbonyl)-amino]-butyryl}-piperazine-1-carboxylic acid ethyl ester] here?
A: 12 nM

Q: For `CCOC(=O)N1CCN(C(=O)[C@H](CCC(=O)O)NC(=O)c2cc(O[C@H](C)C(=O)N3CCC[C@H]3C(=O)NCC3CC3)c3ccc(C)cc3n2)CC1` [Example 300, 4-{(S)-4-Carboxy-2-[(4-{(R)-2-[(S)-2-(cyclopropylmethyl-carbamoyl)-pyrrolidin-1-yl]-1-methyl-2-oxo-ethoxy}-7-methyl-quinoline-2-carbonyl)-amino]-butyryl}-piperazine-1-carboxylic acid ethyl ester], which IC50 [2] is on record?
A: 5 nM

Q: With `CCOC(=O)N1CCN(C(=O)[C@H](CCC(=O)O)NC(=O)c2cc(OCC(=O)N3CCC[C@H]3C(=O)NCC3CCC3)c3ccc(C)cc3n2)CC1` [Example 308, 4-{(S)-4-Carboxy-2-[(4-{2-[(S)-2-(cyclobutylmethyl-carbamoyl)-pyrrolidin-1-yl]-2-oxo-ethoxy}-7-methyl-quinoline-2-carbonyl)-amino]-butyryl}-piperazine-1-carboxylic acid ethyl ester] as the molecule, how does the IC50 [1] read?
A: 60 nM

Q: Which IC50 [2] does the source give for `CCOC(=O)N1CCN(C(=O)[C@H](CCC(=O)O)NC(=O)c2cc(OCC(=O)N3CCCC3c3ccccc3)c3ccccc3n2)CC1` (stereo partly drawn) [Example 334, 4-[(S)-4-Carboxy-2-({4-[2-oxo-2-(2-phenyl-pyrrolidin-1-yl)-ethoxy]-quinoline-2-carbonyl}-amino)-butyryl]-piperazine-1-carboxylic acid ethyl ester] here?
A: 102 nM

Q: `CCCCOC(=O)N1CC(NC(=O)[C@H](CCC(=O)O)NC(=O)c2cc(OCC(=O)N3CCC[C@H]3C(=O)NC3CCC3)c3ccccc3n2)C1` [Example 424, 3-[(S)-4-Carboxy-2-({4-[2-((S)-2-cyclobutylcarbamoyl-pyrrolidin-1-yl)-2-oxo-ethoxy]-quinoline-2-carbonyl}-amino)-butyrylamino]-azetidine-1-carboxylic acid butyl ester] was tested. Which IC50 [2] did it give?
A: 33 nM

Q: Which IC50 [1] does the source give for `CCCCOC(=O)N1CCN(C(=O)[C@H](CCC(=O)O)NC(=O)c2cc(OCC(=O)N3CCC[C@H]3C#N)c3ccc(C)cc3n2)CC1` [Example 460, 4-[(S)-4-Carboxy-2-({4-[2-((S)-2-cyano-pyrrolidin-1-yl)-2-oxo-ethoxy]-7-methyl-quinoline-2-carbonyl}-amino)-butyryl]-piperazine-1-carboxylic acid butyl ester] here?
A: 73 nM

Q: For `CCCCOC(=O)N1CCN(C(=O)[C@H](CCC(=O)O)NC(=O)c2cc(OCC(=O)N3CC(O)C3)c3ccc(C)cc3n2)CC1` [Example 472, 4-[(S)-4-Carboxy-2-({4-[2-(3-hydroxy-azetidin-1-yl)-2-oxo-ethoxy]-7-methyl-quinoline-2-carbonyl}-amino)-butyryl]-piperazine-1-carboxylic acid butyl ester], which IC50 [1] is on record?
A: 65 nM

Q: Which IC50 [2] does the source give for `CCCCOC(=O)N1CCN(C(=O)[C@H](CCC(=O)O)NC(=O)c2cc(OCC(=O)N3CCC[C@H]3C(=O)NC3CCC3)c3ccc(C)cc3c2)CC1` [Example 511, 4-[(S)-4-Carboxy-2-({4-[2-((S)-2-cyclobutylcarbamoyl-pyrrolidin-1-yl)-2-oxo-ethoxy]-7-methyl-naphthalene-2-carbonyl}-amino)-butyryl]-piperazine-1-carboxylic acid butyl ester] here?
A: 21 nM

Q: With `CCCCOC(=O)N1CCN(C(=O)CNC(=O)c2cc(OCC(=O)N3CCC[C@H]3C(=O)NC3CCC3)c3ccccc3n2)CC1` [Example 673, 4-[2-({4-[2-((S)-2-Cyclobutylcarbamoyl-pyrrolidin-1-yl)-2-oxo-ethoxy]-quinoline-2-carbonyl}-amino)-acetyl]-piperazine-1-carboxylic acid butyl ester] as the molecule, how does the IC50 [2] read?
A: 5 nM

Q: Which IC50 [2] does the source give for `Cc1ccc2c(OCC(=O)N3CCC[C@H]3C(=O)NC3CCC3)cc(C(=O)NCC(=O)N3CCN(C(=O)OCCC(F)(F)F)CC3)nc2c1` [Example 679, 4-[2-({4-[2-((S)-2-Cyclobutylcarbamoyl-pyrrolidin-1-yl)-2-oxo-ethoxy]-7-methyl-quinoline-2-carbonyl}-amino)-acetyl]-piperazine-1-carboxylic acid 3,3,3-trifluoro-propyl ester] here?
A: 3 nM
